The results in this text go back to ChEMBL document CHEMBL3390840, “Expanding the horizon of chemotherapeutic targets: From MDM2 to MDMX (MDM4)” (Medchemcomm, 2011).

One assay deals with T1, Protein Mdm4 (Homo sapiens, UniProt O15151).
T1 sequence (O15151 whole entry): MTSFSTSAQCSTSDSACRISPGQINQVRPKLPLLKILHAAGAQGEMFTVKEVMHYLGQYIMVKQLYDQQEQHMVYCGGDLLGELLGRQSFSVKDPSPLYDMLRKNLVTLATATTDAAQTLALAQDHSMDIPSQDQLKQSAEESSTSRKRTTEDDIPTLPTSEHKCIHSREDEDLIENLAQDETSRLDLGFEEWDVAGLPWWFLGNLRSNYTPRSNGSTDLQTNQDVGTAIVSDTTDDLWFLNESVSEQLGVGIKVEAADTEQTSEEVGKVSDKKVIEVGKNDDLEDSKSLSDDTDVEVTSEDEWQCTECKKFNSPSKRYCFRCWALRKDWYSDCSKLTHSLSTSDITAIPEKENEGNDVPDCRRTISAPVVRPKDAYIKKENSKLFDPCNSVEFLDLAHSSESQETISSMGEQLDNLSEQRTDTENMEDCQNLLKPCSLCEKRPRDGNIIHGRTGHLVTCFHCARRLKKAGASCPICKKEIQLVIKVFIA
In words: Inhibition of human full length GST-tagged MDMX expressed in Escherichia coli TG1 after 15 mins by ELISA.

Assay [1] deals with E3 ubiquitin-protein ligase Mdm2 (Homo sapiens, UniProt Q00987). In words: Inhibition of human full length GST-tagged MDM2 expressed in Escherichia coli TG1 after 15 mins by ELISA.
E3 ubiquitin-protein ligase Mdm2, sequence (Q00987 whole entry): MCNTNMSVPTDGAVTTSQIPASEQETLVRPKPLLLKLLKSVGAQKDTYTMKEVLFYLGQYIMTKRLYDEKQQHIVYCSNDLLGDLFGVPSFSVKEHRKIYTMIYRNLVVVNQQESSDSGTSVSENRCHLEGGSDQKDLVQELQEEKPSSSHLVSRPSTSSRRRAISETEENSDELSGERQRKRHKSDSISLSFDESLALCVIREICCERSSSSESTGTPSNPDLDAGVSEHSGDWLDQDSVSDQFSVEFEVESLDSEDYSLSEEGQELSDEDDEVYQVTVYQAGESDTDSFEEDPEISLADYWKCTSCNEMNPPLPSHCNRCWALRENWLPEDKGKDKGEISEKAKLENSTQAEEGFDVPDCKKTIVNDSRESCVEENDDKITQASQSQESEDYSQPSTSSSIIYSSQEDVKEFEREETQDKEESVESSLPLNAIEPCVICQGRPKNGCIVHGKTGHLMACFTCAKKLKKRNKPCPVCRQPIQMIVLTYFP
The next assay addresses MDMX (Homo sapiens, UniProt O15151). In words: Inhibition of human recombinant MDMX (1 to 185) after 30 mins by fluorescence polarization assay.

For the molecule H-MPRFMDYWEGLN-OH, the IC50 – broadly, the point on the concentration scale where inhibition reaches its midpoint – on Protein Mdm4 amounted to 1650 nM; in assay [1], 150 nM. In the case of `CCOc1cc(/C=C2\C(=O)N(c3ccccc3)N=C2C)cc(Cl)c1OCC(=O)OC`, the concentration giving a half-maximal response (EC50) (in general, the concentration needed to bring the measured effect to its halfway point) at MDMX was found to be 840 nM.
